Results on 15 compounds are retold here after patent publication US20250368666A1, “INDAZOLE COMPOUNDS” (TYRA BIOSCIENCES, INC., priority 2022, published 2025).

Usually Kd stands for the equilibrium constant for the complex coming apart. By IC50 is commonly meant the point on the concentration scale where inhibition reaches its midpoint. Low values mean inhibition by little substance, high ones a need for much substance.

Each structure is given as a SMILES string. Like-named read-outs stand apart in the source and are kept apart here.

The target in experiment [1] is T1, FGFR1 (Homo sapiens, UniProt P11362).
T1 construct: made in house; host or cells: E. coli (BL21-derived), T7 phage
T1 sequence (P11362 22-822): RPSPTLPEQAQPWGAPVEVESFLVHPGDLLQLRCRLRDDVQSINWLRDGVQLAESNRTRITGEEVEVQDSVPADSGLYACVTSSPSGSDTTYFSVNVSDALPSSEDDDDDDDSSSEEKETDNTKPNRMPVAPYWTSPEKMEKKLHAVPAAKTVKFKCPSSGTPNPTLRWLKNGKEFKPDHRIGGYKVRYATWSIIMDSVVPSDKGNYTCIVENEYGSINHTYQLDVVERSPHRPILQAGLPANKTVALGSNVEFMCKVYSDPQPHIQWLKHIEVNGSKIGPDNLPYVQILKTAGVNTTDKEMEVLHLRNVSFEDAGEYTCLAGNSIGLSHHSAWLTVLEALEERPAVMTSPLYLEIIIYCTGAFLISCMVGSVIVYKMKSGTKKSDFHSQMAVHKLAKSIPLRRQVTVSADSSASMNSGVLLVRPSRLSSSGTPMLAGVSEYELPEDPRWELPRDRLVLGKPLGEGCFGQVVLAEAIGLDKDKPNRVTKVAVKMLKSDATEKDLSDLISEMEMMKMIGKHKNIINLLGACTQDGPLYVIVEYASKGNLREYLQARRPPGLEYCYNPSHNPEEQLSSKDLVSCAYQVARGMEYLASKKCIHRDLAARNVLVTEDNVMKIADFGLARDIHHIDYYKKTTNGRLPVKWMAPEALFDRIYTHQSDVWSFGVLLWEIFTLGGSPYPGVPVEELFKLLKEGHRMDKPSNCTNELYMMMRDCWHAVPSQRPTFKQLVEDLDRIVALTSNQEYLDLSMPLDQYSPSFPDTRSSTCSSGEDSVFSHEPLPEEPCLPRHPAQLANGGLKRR
Briefly: Kinase binding assay (kinase-tagged T7 phage, affinity beads, qPCR), Kd. To be noted: read-out: FGFR1 (Kd nM). The procedure, abridged:
(§1)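 Phage-tagged kinase capture on small-molecule affinity resin, compound competition, qPCR quantitation; Kd from Levenberg-Marquardt Hill fit.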
(In general: Real-time PCR tracks product formation cycle by cycle.)

Experiment [2] deals with T2, FGFR3 (Homo sapiens, UniProt P22607).
T2 construct: made in house; host or cells: E. coli (BL21-derived), T7 phage
T2 sequence (P22607 23-806): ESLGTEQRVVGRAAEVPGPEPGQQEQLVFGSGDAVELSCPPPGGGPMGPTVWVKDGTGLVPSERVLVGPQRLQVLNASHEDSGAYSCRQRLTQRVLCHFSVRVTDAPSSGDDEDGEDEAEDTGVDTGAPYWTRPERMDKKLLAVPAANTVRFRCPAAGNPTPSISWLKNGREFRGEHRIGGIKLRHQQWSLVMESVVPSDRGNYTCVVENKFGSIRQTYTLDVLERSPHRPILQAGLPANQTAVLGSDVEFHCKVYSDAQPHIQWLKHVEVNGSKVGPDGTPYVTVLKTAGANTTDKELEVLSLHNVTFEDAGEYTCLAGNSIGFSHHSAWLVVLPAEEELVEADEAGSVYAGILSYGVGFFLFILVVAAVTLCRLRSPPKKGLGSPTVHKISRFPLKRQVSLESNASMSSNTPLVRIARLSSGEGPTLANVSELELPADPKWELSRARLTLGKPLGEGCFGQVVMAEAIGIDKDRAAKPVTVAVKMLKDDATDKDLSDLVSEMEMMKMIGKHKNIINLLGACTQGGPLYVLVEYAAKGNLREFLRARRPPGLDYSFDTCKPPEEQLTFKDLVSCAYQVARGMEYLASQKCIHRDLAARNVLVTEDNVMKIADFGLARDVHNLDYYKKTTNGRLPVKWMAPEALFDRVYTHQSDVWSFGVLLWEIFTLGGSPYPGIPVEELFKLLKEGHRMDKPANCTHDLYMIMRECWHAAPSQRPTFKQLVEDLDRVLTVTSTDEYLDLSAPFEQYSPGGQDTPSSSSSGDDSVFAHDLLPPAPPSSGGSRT
The description is as above. The settings on record: read-out: FGFR3 (Kd nM). The procedure, abridged: as §1

Experiment [3] deals with KATO-III cell line (FGFR2 amplification). Briefly: Cancer cell line cell viability assay (Cell Titer-Glo), 72 hr. It counts as cell-based. The settings on record: Homo sapiens, KATO III. An excerpt:
(§2) Experimental Purpose: To detect the change of intracellular ATP by Cell Titer-Glo® and to evaluate the inhibitory effect of the compounds on cancer cell lines by determining the in vitro IC50 value of the compounds.
(§3) Cell Titer-Glo® 2.0 Luminescent cell viability assay reagent was purchased from Promega (Madison, WI). KG-1, KATO-III, and MDA-MB-453 cell lines were purchased from American Type Culture Collection (Manassas, VA). RT112/84 cell line was purchased from Millipore-Sigma (St. Louis, MO). HuH7 cells were purchased from Seikisui Xenotech (Kansas City, KS). RT112/84 and MDA-MB-453 cells were cultured in RPMI1640 media supplemented with 10% fetal bovine serum. KG-1 and KATO-III cell lines were cultured in IMDM media supplemented with 20% FBS. HuH7 cells were cultured in IMDM media supplemented with 10% FBS. Cultures were maintained at 37° C. in a humidified atmosphere of 5% CO2 and 95% air.
(§4) Cell Viability Assay Procedure: Cells were plated in 96-well clear bottom/white plates (Corning #3903) at a range of densities depending on the optimal assay window (5,000-20,000 cells/well in […] of media), incubated overnight. The next day, test compound DMSO stock solutions were made at 10 mM and […] final concentration. Compounds were then added to cells in a 9-dose, 4-fold dilution series starting at 3 μM with an HP 300e Digital Dispenser (each dose was applied in triplicate). DMSO was backfilled to each well up to 301 nL total volume of test compound+DMSO, and a total of 301 nL DMSO was added to a control/no test compound well in triplicate. The cells in cell culture plates were incubated with the compounds at 37° C. and 5% CO2 for 72 hours-120 hours depending on the cell line. Then 50 μl of Cell Titer Glo 2.0 reagent was added to each well of the cell culture plates. The contents were covered from light and mixed on an orbital shaker at room temperature for minimum of 10 min. Luminescence was recorded by a Clariostar Plus Microplate Reader (BMG Labtech, Cary, NC). Cells were assessed as a percentage of DMSO only treated control cells. Curves were plotted and IC50 values were calculated using the GraphPad Prism 9 program based on a sigmoidal dose-response equation (log (inhibitor) vs. response—Variable slope, 4-parameter).

For experiment [4], the system named is KG-1 cell line (FGFR 1-fusion). The description is as above. Type of experiment: cell-based. The settings on record: Homo sapiens, KG-1, KG-1 cell line (FGFR1-fusion).
Source text: as §2, §3, §4

For experiment [5], the system named is RT112/84 cell line (FGFR3-fusion). Described as above. Type of experiment: cell-based. To be noted: Homo sapiens, RT112/84, RT112/84 cell line (FGFR3-fusion).
Source text: as §2, §3, §4

Where [6] appears, read: kinase binding assay, 11-point 3-fold dilution series.

For `C[C@@H](Oc1ccc2[nH]nc(-c3ccc(N4CC(N)(c5ccn(C)n5)C4)nn3)c2c1)c1c(Cl)cncc1Cl` [Example 388, (R)-1-(6-(5-(1-(3,5-dichloropyridin-4-yl)ethoxy)-1H-indazol-3-yl)pyridazin-3-yl)-3-(1-methyl-1H-pyrazol-3-yl)azetidin-3-amine], the Kd in experiment [1] (setting [6]) and in experiment [2] (setting [6]) was 1 to 50 nM throughout. Also, the IC50 in experiment [3] was in the range of 50 to 200 nM; in experiment [4], 200 to 1000 nM; in experiment [5], 0.1 to 50 nM.

Take `C[C@@H](Oc1ccc2[nH]nc(-c3cnc(N4CC(N)(CC#N)C4)c(F)c3)c2c1)c1c(Cl)cncc1Cl` [Example 241, (R)-2-(3-amino-1-(5-(5-(1-(3,5-dichloropyridin-4-yl)ethoxy)-1H-indazol-3-yl)-3-fluoropyridin-2-yl)azetidin-3-yl)acetonitrile]: the equilibrium dissociation constant (Kd) in experiment [1] and in experiment [2] was 1 to 50 nM throughout. In addition, the IC50 lay within 0.1 to 50 nM in experiment [3], 50 to 200 nM in experiment [4] and 0.1 to 50 nM in experiment [5].

On to `C[C@@H](Oc1ccc2[nH]nc(-c3ccc(N4CC(N)(c5ccnn5C)C4)nn3)c2c1)c1c(Cl)cncc1Cl` [Example 391, (R)-1-(6-(5-(1-(3,5-dichloropyridin-4-yl)ethoxy)-1H-indazol-3-yl)pyridazin-3-yl)-3-(1-methyl-1H-pyrazol-5-yl)azetidin-3-amine], for which the dissociation constant Kd in experiment [1] (setting [6]) and in experiment [2] (setting [6]) was 1 to 50 nM in each case. In addition, the IC50 is 0.1 to 50 nM in experiment [3], 50 to 200 nM in experiment [4] and 0.1 to 50 nM in experiment [5].

For `C[C@@H](Oc1ccc2[nH]nc(-c3ccc(N4CC(C)(NC(=O)CN(C)C)C4)nn3)c2c1)c1c(Cl)cncc1Cl` [Example 297, (R)—N-(1-(6-(5-(1-(3,5-dichloropyridin-4-yl)ethoxy)-1H-indazol-3-yl)pyridazin-3-yl)-3-methylazetidin-3-yl)-2-(dimethylamino)acetamide], the Kd in experiment [1] and in experiment [2] was 1 to 50 nM in each case. Moreover, the IC50 in experiment [3], in experiment [4] and in experiment [5] was 0.1 to 50 nM each time.

Regarding `C[C@@H](Oc1ccc2[nH]nc(-c3cnc(N4CC(N)(CCC#N)C4)c(F)c3)c2c1)c1c(Cl)cncc1Cl` [Example 298, (R)-3-(3-amino-1-(5-(5-(1-(3,5-dichloropyridin-4-yl)ethoxy)-1H-indazol-3-yl)-3-fluoropyridin-2-yl)azetidin-3-yl)propanenitrile], the Kd in experiment [1] and in experiment [2] was 1 to 50 nM in each case. For the same compound, the IC50 in experiment [3] was 0.1 to 50 nM; in experiment [4] it was 50 to 200 nM; in experiment [5], 0.1 to 50 nM.

As for `CC(C)OCC1(N)CN(c2ccc(-c3n[nH]c4ccc(O[C@H](C)c5c(Cl)cncc5Cl)cc34)nn2)C1` [Example 377, (R)-1-(6-(5-(1-(3,5-dichloropyridin-4-yl)ethoxy)-1H-indazol-3-yl)pyridazin-3-yl)-3-(isopropoxy-methyl)a-zetidin-3-amine], the Kd in experiment [1] and in experiment [2] was 1 to 50 nM each time. The IC50 in experiment [3] lay in the range of 50 to 200 nM; in experiment [4] it was 200 to 1000 nM; in experiment [5], 0.1 to 50 nM.

As to `C[C@@H](Oc1ccc2[nH]nc(-c3ccc(N4CC(N)(CCS(C)(=O)=O)C4)nn3)c2c1)c1c(Cl)cncc1Cl` [Example 294, (R)-1-(6-(5-(1-(3,5-dichloropyridin-4-yl)ethoxy)-1H-indazol-3-yl)pyridazin-3-yl)-3-(2-(methylsulfonyl)ethyl)azetidin-3-amine], the Kd in experiment [1] and in experiment [2] was 1 to 50 nM throughout. Besides, the IC50 was 50 to 200 nM in experiment [3], > 1000 nM in experiment [4] and 0.1 to 50 nM in experiment [5].

Take `COc1cc2[nH]nc(-c3cnc(N4CC(C)(N)C4)c(F)c3)c2cc1O[C@H](C)c1c(Cl)cncc1Cl` [Example 304, (R)-1-(5-(5-(1-(3,5-dichloropyridin-4-yl)ethoxy)-6-methoxy-1H-indazol-3-yl)-3-fluoropyridin-2-yl)-3-methylazetidin-3-amine]: the Kd in experiment [1] and in experiment [2] was 1 to 50 nM in each case. Also, the figures for the IC50 in experiment [3], in experiment [4] and in experiment [5] were 0.1 to 50 nM, 50 to 200 nM and 0.1 to 50 nM, respectively.

Turning to `CCC1(N)CN(c2ccc(-c3n[nH]c4ccc(O[C@H](C)c5c(Cl)cncc5Cl)cc34)nn2)C1` [Example 299, (R)-1-(6-(5-(1-(3,5-Dichloropyridin-4-yl)ethoxy)-1H-indazol-3-yl)pyridazin-3-yl)-3-ethylazetidin-3-amine], the Kd in experiment [1] and in experiment [2] was 1 to 50 nM each time. Also, the IC50 in experiment [3] lay in the range of 50 to 200 nM; in experiment [4], 50 to 200 nM; in experiment [5] it was 0.1 to 50 nM.

Consider `CC(C)OC(=O)C1(N)CN(c2ccc(-c3n[nH]c4ccc(O[C@H](C)c5c(Cl)cncc5Cl)cc34)nn2)C1` [Example 308, (R)-isopropyl 3-amino-1-(6-(5-(1-(3,5-dichloropyridin-4-yl)ethoxy)-1H-indazol-3-yl)pyridazin-3-yl)azetidine-3-carboxylate], for which the Kd in experiment [1] and in experiment [2] was 1 to 50 nM throughout. The IC50 in experiment [3] is 50 to 200 nM; in experiment [4], 200 to 1000 nM; in experiment [5], 0.1 to 50 nM.

Consider `C[C@@H](Oc1ccc2[nH]nc(-c3ccc(N4CC(C)(NCC(=O)N(C)C)C4)nn3)c2c1)c1c(Cl)cncc1Cl` [Example 314, (R)-2-((1-(6-(5-(1-(3,5-dichloropyridin-4-yl)ethoxy)-1H-indazol-3-yl)pyridazin-3-yl)-3-methylazetidin-3-yl)amino)-N,N-dimethylacetamide], for which the Kd in experiment [1] and in experiment [2] was 1 to 50 nM throughout. The results for the IC50 in experiment [3], in experiment [4] and in experiment [5] were 50 to 200 nM, 200 to 1000 nM and 0.1 to 50 nM, respectively.

Regarding `CNC(=O)C1(N)CN(c2ccc(-c3n[nH]c4ccc(O[C@H](C)c5c(Cl)cncc5Cl)cc34)nn2)C1` [Example 300, (R)-3-amino-1-(6-(5-(1-(3,5-dichloropyridin-4-yl)ethoxy)-1H-indazol-3-yl)pyridazin-3-yl)-N-methylazetidine-3-carboxamide], the Kd in experiment [1] and in experiment [2] was 1 to 50 nM throughout. Moreover, the 50% inhibitory concentration (IC50) in experiment [3] is 50 to 200 nM; in experiment [4], > 1000 nM; in experiment [5], 0.1 to 50 nM.

In the case of `C[C@@H](Oc1ccc2[nH]nc(-c3ccc(N4CC(N)(CS(C)(=O)=O)C4)nn3)c2c1)c1c(Cl)cncc1Cl` [Example 387, (R)-1-(6-(5-(1-(3,5-dichloropyridin-4-yl)ethoxy)-1H-indazol-3-yl)pyridazin-3-yl)-3-((methylsulfonyl)meth-yl)azetidin-3-amine], the Kd in experiment [1] (setting [6]) and in experiment [2] (setting [6]) was 1 to 50 nM in each case. Also, the concentration for half-maximal inhibition (IC50) in experiment [3] is 50 to 200 nM; in experiment [4], 200 to 1000 nM; in experiment [5] it was 0.1 to 50 nM.

For `COCC1(N)CN(c2ccc(-c3n[nH]c4ccc(O[C@H](C)c5c(Cl)cncc5Cl)cc34)nn2)C1` [Example 376, (R)-1-(6-(5-(1-(3,5-dichloropyridin-4-yl)ethoxy)-1H-indazol-3-yl)pyridazin-3-yl)-3-(methoxy-methyl)aze-tidin-3-amine], the Kd in experiment [1] and in experiment [2] was 1 to 50 nM each time. Also, the IC50 is 50 to 200 nM in experiment [3], 200 to 1000 nM in experiment [4] and 0.1 to 50 nM in experiment [5].

Take `CCOCC1(N)CN(c2ccc(-c3n[nH]c4ccc(O[C@H](C)c5c(Cl)cncc5Cl)cc34)nn2)C1` [Example 316, (R)-1-(6-(5-(1-(3,5-dichloropyridin-4-yl)ethoxy)-1H-indazol-3-yl)pyridazin-3-yl)-3-(ethoxymethyl)azeti-din-3-amine]: the Kd in experiment [1] and in experiment [2] was 1 to 50 nM in each case. Further, the IC50 in experiment [3] is 50 to 200 nM; in experiment [4], 50 to 200 nM; in experiment [5], 0.1 to 50 nM.
